Data published in patent US8513229B2, “4-Azetidinyl-1-phenyl-cyclohexane antagonists of CCR2” (Janssen Pharmaceutica NV, priority 2009, dated 2013).

Each compound was assayed against T1, CCR2 (Homo sapiens, UniProt P41597) (assay: MCP-1 Receptor Binding Assay in THP-1 Cells). Conditions: 0.5 nM 125I labeled MCP-1, 2 hours at 30° C., read-out: Inhibition of MCP-1 Binding IC50 CCR2 Binding.
T1 construct: host or cells: THP-1 human monocytic cells
T1 sequence (P41597 1-360 isoform P41597-2): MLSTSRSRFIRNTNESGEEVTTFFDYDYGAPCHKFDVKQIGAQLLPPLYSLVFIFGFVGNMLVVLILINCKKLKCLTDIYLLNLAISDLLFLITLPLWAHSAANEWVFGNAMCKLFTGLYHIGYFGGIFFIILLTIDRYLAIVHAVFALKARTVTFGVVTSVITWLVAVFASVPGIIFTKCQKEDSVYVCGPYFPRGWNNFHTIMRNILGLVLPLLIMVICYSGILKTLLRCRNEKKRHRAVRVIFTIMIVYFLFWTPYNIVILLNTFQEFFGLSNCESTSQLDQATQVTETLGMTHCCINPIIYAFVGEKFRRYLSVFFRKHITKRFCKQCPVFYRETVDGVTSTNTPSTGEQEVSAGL
Method: MCP-1 Receptor Binding Assay in THP-1 Cells
Human monocytic cell line THP-1 cells were obtained from American Type Culture Collection (Manassas, Va., USA). […] The cell density was maintained […].
1 μM cold MCP-1 was used for nonspecific binding.

Row | SMILES | IC50 [nM]
1 | Nc1cccc(C2(O)CCC(N3CC(NC(=O)CNC(=O)c4cccc(C(F)(F)F)c4)C3)CC2)c1 (single isomer, unassigned) [Example 58a, N-({1-[4-(3-Amino-phenyl)-4-hydroxy-cyclohexyl]-azetidin-3-ylcarbamoyl}-methyl)-3-trifluoromethyl-benzamide] | 52
2 | O=C(CNC(=O)c1cc(C(F)(F)F)ccc1F)NC1CN(C2CCC(c3ccccc3)CC2)C1 (centres unmarked) [Example 66, 2-Fluoro-N-{[1-(4-phenyl-cyclohexyl)-azetidin-3-ylcarbamoyl]-methyl}-5-trifluoromethyl-benzamide] | 620
3 | CS(=O)(=O)c1ccc(C2CCC(N3CC(NC(=O)CNC(=O)c4cccc(C(F)(F)F)c4)C3)CC2)cc1 (centres unmarked) [Example 29, N-({1-[4-(4-Methanesulfonyl-phenyl)-cyclohexyl]-azetidin-3-ylcarbamoyl}-methyl)-3-trifluoromethyl-benzamide] | 280
4 | CS(=O)(=O)N(c1cc(C(=O)NCC(=O)NC2CN(C3CCC(c4ccccc4)CC3)C2)cc(C(F)(F)F)c1)S(C)(=O)=O (centres unmarked) [Example 80, 3-Bis methanesulfonyl-N-{[1-(4-phenyl-cyclohexyl)-azetidin-3-ylcarbamoyl]-methyl}-5-trifluoromethyl-benzamide] | 420
5 | O=C(CNC(=O)c1cccc(C(F)(F)F)c1)NC1CN(C2CCC(O)(c3ccc(Cl)cc3)CC2)C1 (centres unmarked) [Example 53, N-({1-[4-(4-Chloro-phenyl)-4-hydroxy-cyclohexyl]-azetidin-3-ylcarbamoyl}-methyl)-3-trifluoromethyl-benzamide] | 240
6 | Cc1ccc(C2(O)CCC(N3CC(NC(=O)CNC(=O)c4cccc(C(F)(F)F)c4)C3)CC2)cc1 (centres unmarked) [Example 59, N-{[1-(4-Hydroxy-4-p-tolyl-cyclohexyl)-azetidin-3-ylcarbamoyl]-methyl}-3-trifluoromethyl-benzamide] | 100
7 | O=C(O)Cc1ccc(C2CCC(N3CC(NC(=O)CNC(=O)c4cccc(C(F)(F)F)c4)C3)CC2)cc1 (centres unmarked) [Example 25, [4-(4-{3-[2-(3-Trifluoromethyl-benzoylamino)-acetylamino]-azetidin-1-yl}-cyclohexyl)-phenyl]-acetic acid] | 320
8 | NC(=O)Cc1ccc(C2CCC(N3CC(NC(=O)CNC(=O)c4cccc(C(F)(F)F)c4)C3)CC2)cc1 (centres unmarked) [Example 26, N-({1-[4-(4-Carbamoylmethyl-phenyl)-cyclohexyl]-azetidin-3-ylcarbamoyl}-methyl)-3-trifluoromethyl-benzamide] | 70
9 | NC1(c2ccc3c(c2)OCO3)CCC(N2CC(NC(=O)CNC(=O)c3cccc(C(F)(F)F)c3)C2)CC1 (single isomer, unassigned) [Example 85a, N-{[1-(4-Amino-4-benzo[1,3]dioxol-5-yl-cyclohexyl)-azetidin-3-ylcarbamoyl]-methyl}-3-trifluoromethyl-benzamide] | 280
10 | COc1ccc(C2(N)CCC(N3CC(NC(=O)CNC(=O)c4cccc(C(F)(F)F)c4)C3)CC2)cc1 (centres unmarked) [Example 86, N-({1-[4-Amino-4-(4-methoxy-phenyl)-cyclohexyl]-azetidin-3-ylcarbamoyl}-methyl)-3-trifluoromethyl-benzamide] | 320
11 | COc1cccc(C2(O)CCC(N3CC(NC(=O)CNC(=O)c4cccc(C(F)(F)F)c4)C3)CC2)c1 (single isomer, unassigned) [Example 37a, N-({1-[4-Hydroxy-4-(3-methoxy-phenyl)-cyclohexyl]-azetidin-3-ylcarbamoyl}-methyl)-3-trifluoromethyl-benzamide] | 69
12 | O=C(CNC(=O)c1cc([N+](=O)[O-])cc(C(F)(F)F)c1)NC1CN(C2CCC(c3ccccc3)CC2)C1 (centres unmarked) [Example 78, 3-Nitro-N-{[1-(4-phenyl-cyclohexyl)-azetidin-3-ylcarbamoyl]-methyl}-5-trifluoromethyl-benzamide] | 1000
13 | O=C(CNC(=O)c1cccc(C(F)(F)F)c1)NC1CN(C2CCC(O)(c3ccc4c(c3)OCC4)CC2)C1 (single isomer, unassigned) [Example 33a, N-({1-[4-(2,3-Dihydro-benzofuran-6-yl)-4-hydroxy-cyclohexyl]-azetidin-3-ylcarbamoyl}-methyl)-3-trifluoromethyl-benzamide] | 25
14 | CC(C)(C)NC(=O)Nc1cc(C(=O)NCC(=O)NC2CN(C3CCC(c4ccccc4)CC3)C2)cc(C(F)(F)F)c1 (centres unmarked) [Example 82, 3-(3-tert-Butyl-ureido)-N-{[1-(4-phenyl-cyclohexyl)-azetidin-3-ylcarbamoyl]-methyl}-5-trifluoromethyl-benzamide] | 50
15 | COc1ccc(C(=O)NCC(=O)NC2CN(C3CCC(c4ccccc4)CC3)C2)cc1C(F)(F)F (centres unmarked) [Example 67, 4-Methoxy-N-{[1-(4-phenyl-cyclohexyl)-azetidin-3-ylcarbamoyl]-methyl}-3-trifluoromethyl-benzamide] | 600
16 | O=C(CNC(=O)c1cc(C(F)(F)F)cc(C(F)(F)F)c1)NC1CN(C2CCC(c3ccccc3)CC2)C1 (single isomer, unassigned) [Example 75a, N-{[1-(4-Phenyl-cyclohexyl)-azetidin-3-ylcarbamoyl]-methyl}-3,5-bis-trifluoromethyl-benzamide] | 4700
17 | O=C(CNC(=O)c1cccc(C(F)(F)F)c1)NC1CN(C2CCC(O)(c3cccc(-c4nnn[nH]4)c3)CC2)C1 (centres unmarked) [Example 49, N-[(1-{4-Hydroxy-4-[3-(1H-tetrazol-5-yl)-phenyl]-cyclohexyl}-azetidin-3-ylcarbamoyl)-methyl]-3-trifluoromethyl-benzamide] | 810
18 | Nc1ccc(C2CCC(N3CC(NC(=O)CNC(=O)c4cccc(C(F)(F)F)c4)C3)CC2)cc1 (centres unmarked) [Example 15, N-({1-[4-(4-Amino-phenyl)-cyclohexyl]-azetidin-3-ylcarbamoyl}-methyl)-3-trifluoromethyl-benzamide] | 337
19 | O=C(CNC(=O)c1cccc(C(F)(F)F)c1)NC1CN(C2CCC(O)(c3ccc4c(c3)OCO4)CC2)C1 (single isomer, unassigned) [Example 31a, N-{[1-(4-Benzo[1,3]dioxol-5-yl-4-hydroxy-cyclohexyl)-azetidin-3-ylcarbamoyl]-methyl}-3-trifluoromethyl-benzamide] | 46
20 | O=C(CNC(=O)c1cccc(C(F)(F)F)c1)NC1CN(C2CCC(O)(c3ccc4oc(=O)[nH]c4c3)CC2)C1 (single isomer, unassigned) [Example 35a, N-({1-[4-Hydroxy-4-(2-oxo-2,3-dihydro-benzooxazol-5-yl)-cyclohexyl]-azetidin-3-ylcarbamoyl}-methyl)-3-trifluoromethyl-benzamide] | 190
21 | COc1ccc(C2(O)CCC(N3CC(NC(=O)CNC(=O)c4cccc(C(F)(F)F)c4)C3)CC2)cc1F (single isomer, unassigned) [Example 57a, N-({1-[4-(3-Fluoro-4-methoxy-phenyl)-4-hydroxy-cyclohexyl]-azetidin-3-ylcarbamoyl}-methyl)-3-trifluoromethyl-benzamide] | 33
22 | O=C(CNC(=O)c1cccc(C(F)(F)F)c1)NC1CN(C2CCC(c3ccc4sc(=O)[nH]c4c3)CC2)C1 (single isomer, unassigned) [Example 6a, N-({1-[4-(2-Oxo-2,3-dihydro-benzothiazol-5-yl)-cyclohexyl]-azetidin-3-ylcarbamoyl}-methyl)-3-trifluoromethyl-benzamide] | 200
23 | Cn1c(=O)n(C)c2cc(C3(O)CCC(N4CC(NC(=O)CNC(=O)c5cccc(C(F)(F)F)c5)C4)CC3)ccc21 (centres unmarked) [Example 62, N-({1-[4-(1,3-Dimethyl-2-oxo-2,3-dihydro-1H-benzoimidazol-5-yl)-4-hydroxy-cyclohexyl]-azetidin-3-ylcarbamoyl}-methyl)-3-trifluoromethyl-benzamide] | 82
24 | O=C(CNC(=O)c1cccc(C(F)(F)F)c1)NC1CN(C2CCC(O)(c3ccc(F)cc3)CC2)C1 (single isomer, unassigned) [Example 47a, N-({1-[4-(4-Fluoro-phenyl)-4-hydroxy-cyclohexyl]-azetidin-3-ylcarbamoyl}-methyl)-3-trifluoromethyl-benzamide] | 206
25 | NC1(c2ccccc2)CCC(N2CC(NC(=O)CNC(=O)c3cccc(C(F)(F)F)c3)C2)CC1 (single isomer, unassigned) [Example 84a, N-{[1-(4-Amino-4-phenyl-cyclohexyl)-azetidin-3-ylcarbamoyl]-methyl}-3-trifluoromethyl-benzamide] | 240
26 | O=C(O)COc1ccc(C2CCC(N3CC(NC(=O)CNC(=O)c4cccc(C(F)(F)F)c4)C3)CC2)cc1 (centres unmarked) [Example 44] | 124
27 | N#CCc1ccc(C2CCC(N3CC(NC(=O)CNC(=O)c4cccc(C(F)(F)F)c4)C3)CC2)cc1 (single isomer, unassigned) [Example 21a, N-({1-[4-(4-Cyanomethyl-phenyl)-cyclohexyl]-azetidin-3-ylcarbamoyl}-methyl)-3-trifluoromethyl-benzamide] | 30
28 | O=C(CNC(=O)c1cccc(C(F)(F)F)c1)NC1CN(C2CCC(c3ccc(N4CCCC4)cc3)CC2)C1 (centres unmarked) [Example 13, N-({1-[4-(4-Pyrrolidin-1-yl-phenyl)-cyclohexyl]-azetidin-3-ylcarbamoyl}-methyl)-3-trifluoromethyl-benzamide] | 61
29 | O=C(CNC(=O)c1cccc(C(F)(F)F)c1)NC1CN(C2CCC(c3ccc(-c4nn[nH]n4)cc3)CC2)C1 (centres unmarked) [Example 28, N-[(1-{4-[4-(2H-Tetrazol-5-yl)-phenyl]-cyclohexyl}-azetidin-3-ylcarbamoyl)-methyl]-3-trifluoromethyl-benzamide] | 200
